What all share (assay type): cell-based
The target of assay [1] is T1, human SVCT1 (Homo sapiens, UniProt Q9UHI7).
T1 construct: expressed in transfected cells; host or cells: Xenopus laevis oocytes injected with cRNA (vector pTLN2)
The experiment in a line: L-[14C]ascorbic acid radiotracer uptake in Xenopus oocytes expressing human SVCT1. On the procedure: Functional characterization in Xenopus oocytes—SVCT1 and SVCT2 cDNAs were subcloned into the pTLN2 vector (to improve functional expression in oocytes) and used for cRNA synthesis in vitro using the MEGAscript kit and T7 RNA polymerase (from Ambion). Oocytes were isolated from Xenopus laevis, treated with collagenase A and maintained at 18° C. in modified Barths' medium. Oocytes were injected with 15 ng SVCT1 or SVCT2 cRNA or water only. The radiotracer uptake and voltage-clamp experiments described below were conducted 2-5 days post-injection in standard medium of composition 100 mM NaCl, 2 mM KCl, 1 mM CaCl2, 1 mM MgCl2, and 10 mM HEPES (buffered to pH 7.5 with Tris base). For low-Na^+ or Na^+-free media, NaCl was replaced with choline chloride. For pH-dependence experiments, Na^+ media were buffered to between pH 5.5 and pH 8.0 using 0-5 mM MES, 0-5 mM HEPES and 0-5 mM Tris base. L-Ascorbic acid-containing solutions were always freshly prepared and used immediately. […] Oocytes were solubilized with 10% SDS and carbon-14 content measured by liquid scintillation counting. A two-microelectrode voltage-clamp was used to measure currents associated with SVCT1 expressed in oocytes. Oocytes were superfused at 22° C. in standard Na^+ medium and clamped at −50 mV. Current was continuously monitored by sampling at 1 Hz. Test solutions were always washed out with substrate-free, Na^+-free medium at pH 7.5 for several minutes. Once again, saturation kinetics data were fit to a modified Hill equation in which I and Imax were replaced by uptake V and maximal velocity Vmax for analysis of radiotracer uptake data.

A further assay deals with T2, rat SVCT1 (Rattus norvegicus, UniProt Q9WTW7).
T2 construct: expressed in transfected cells; host or cells: Xenopus laevis oocytes injected with cRNA
The assay is described as follows: Two-microelectrode voltage-clamp of Xenopus oocytes expressing rat SVCT1. On the procedure: Rat SVCT1 and SVCT2 clones were obtained by isolating SVCT1 cDNA from rat kidney by expression cloning as described in Hediger et al., Methods Enzymol. 296:17-52 (1998). The SVCT2 cDNA was subsequently isolated by PCR-based homology screening of a rat brain cDNA library. […] Radiotracer and voltage-clamp experiments were performed (at 22° C.) in Xenopus oocytes two to seven days after injection with ˜25 ng of SVCT1 or SVCT2 cRNA synthesized in vitro. Radiotracer uptake was determined by incubating 6-10 oocytes for 30 or 60 min in standard 100 mM Na^+ or Na^+-free media with 10-600 μM L-[^14C]ascorbic acid.
Functional characterization of SVCT1 and SVCT2 in Xenopus oocytes—Oocytes were isolated from Xenopus laevis (under 2-aminoethylbenzoate anaesthesia), treated with collagenase A and stored at 18° C. in modified Barths' medium. Oocytes were injected with ≈25 ng of SVCT1 or SVCT2 cRNA synthesized in vitro, or water only (control), and incubated 2-7 days before radiotracer or voltage-clamp experiments were performed. Standard Na^+ uptake medium comprised 100 mM NaCl, 2 mM KCl, 1 mM CaCl2, 1 mM MgCl2, 10 mM HEPES (pH 7.5 with Tris base). For Na^+-free or low-Na^+ media, NaCl was replaced by equimolar choline chloride; likewise, Cl^− was replaced by gluconate for Cl^−-free medium. For pH-sensitivity experiments, Na^+ media were buffered at pH 5.5-8.0 using 0-5 mM MES, 0-5 mM HEPES and 0-5 mM Tris base. L-Ascorbic acid-containing solutions were freshly-prepared (without dithiothreitol) and used immediately.
Radiotracer uptake was determined by incubating 6-10 oocytes for 30 or 60 min in standard Na^+ or Na^+-free media (at 22° C.) with 10-600 μM L-[1-^14C]ascorbic acid (final specific activity 0.3 GBq/mmol). Oocytes were solubilized with 10% SDS and [^14C]-content was measured by liquid scintillation counting. A two-microelectrode voltage-clamp was used to measure currents in control oocytes and oocytes injected with rat SVCT1 or rat SVCT2 cRNA. Microelectrodes (resistance 0.5-5 MΩ) were filled with 3 M KCl. Oocytes were superfused at 22° C. in standard Na^+ medium and clamped at a holding potential (Vh) of −50 mV. For continuous current monitoring at Vh=−50 mV, the current was low-pass filtered at 20 Hz (sampling at 1 Hz). Additionally, step-changes in membrane potential (Vm) were applied (from +50 mV to −150 mV in 20-mV increments), each for a duration of 100 ms, before and after the addition of substrate; current was low-pass filtered at 500 Hz and digitized at 5 kHz. Test solutions were always washed out with substrate-free medium (100 mM choline chloride) at pH 7.5 for several minutes. Steady-state data (obtained by averaging the points over the final 16.7 ms at each Vm step when step-changes were applied) were fitted to equation (1) below, for which I is the evoked current (i.e., the difference in steady-state current measured in the presence and absence of substrate), Imax the derived current maximum, S the concentration of substrate S (Na^+ or L-ascorbic acid),
[formula] the substrate concentration at which current was half-maximal, and nH the Hill coefficient for S. (For radiotracer experiments, I was replaced with velocity V and Imax replaced with the derived maximal velocity, Vmax.)

For assay [2], the target named is T1, human SVCT1. The assay is described as follows: Two-microelectrode voltage-clamp of Xenopus oocytes expressing human SVCT1. Particulars: 500 μM, −50 mV. On the procedure: Functional characterization in Xenopus oocytes—SVCT1 and SVCT2 cDNAs were subcloned into the pTLN2 vector (to improve functional expression in oocytes) and used for cRNA synthesis in vitro using the MEGAscript kit and T7 RNA polymerase (from Ambion). Oocytes were isolated from Xenopus laevis, treated with collagenase A and maintained at 18° C. in modified Barths' medium. Oocytes were injected with 15 ng SVCT1 or SVCT2 cRNA or water only. The radiotracer uptake and voltage-clamp experiments described below were conducted 2-5 days post-injection in standard medium of composition 100 mM NaCl, 2 mM KCl, 1 mM CaCl2, 1 mM MgCl2, and 10 mM HEPES (buffered to pH 7.5 with Tris base). For low-Na^+ or Na^+-free media, NaCl was replaced with choline chloride. For pH-dependence experiments, Na^+ media were buffered to between pH 5.5 and pH 8.0 using 0-5 mM MES, 0-5 mM HEPES and 0-5 mM Tris base. L-Ascorbic acid-containing solutions were always freshly prepared and used immediately. Radiotracer uptake was determined by incubating 8-12 oocytes for 30 min (within the time-course of linear uptake) in standard Na^+, low-Na^+ or Na^+-free media with 10-500 μM L-[1-^14C]ascorbic acid (final specific activity ≈0.3 GBq/mmol). Oocytes were solubilized with 10% SDS and carbon-14 content measured by liquid scintillation counting. A two-microelectrode voltage-clamp was used to measure currents associated with SVCT1 expressed in oocytes. Oocytes were superfused at 22° C. in standard Na^+ medium and clamped at −50 mV. Current was continuously monitored by sampling at 1 Hz. Test solutions were always washed out with substrate-free, Na^+-free medium at pH 7.5 for several minutes. Once again, saturation kinetics data were fit to a modified Hill equation in which I and Imax were replaced by uptake V and maximal velocity Vmax for analysis of radiotracer uptake data.

The record followed here is patent US7371536B2, “Methods for transporting vitamin C” (priority 1999, dated 2008).

Each structure is given as a SMILES string.

T1 sequence (Q9UHI7 whole entry): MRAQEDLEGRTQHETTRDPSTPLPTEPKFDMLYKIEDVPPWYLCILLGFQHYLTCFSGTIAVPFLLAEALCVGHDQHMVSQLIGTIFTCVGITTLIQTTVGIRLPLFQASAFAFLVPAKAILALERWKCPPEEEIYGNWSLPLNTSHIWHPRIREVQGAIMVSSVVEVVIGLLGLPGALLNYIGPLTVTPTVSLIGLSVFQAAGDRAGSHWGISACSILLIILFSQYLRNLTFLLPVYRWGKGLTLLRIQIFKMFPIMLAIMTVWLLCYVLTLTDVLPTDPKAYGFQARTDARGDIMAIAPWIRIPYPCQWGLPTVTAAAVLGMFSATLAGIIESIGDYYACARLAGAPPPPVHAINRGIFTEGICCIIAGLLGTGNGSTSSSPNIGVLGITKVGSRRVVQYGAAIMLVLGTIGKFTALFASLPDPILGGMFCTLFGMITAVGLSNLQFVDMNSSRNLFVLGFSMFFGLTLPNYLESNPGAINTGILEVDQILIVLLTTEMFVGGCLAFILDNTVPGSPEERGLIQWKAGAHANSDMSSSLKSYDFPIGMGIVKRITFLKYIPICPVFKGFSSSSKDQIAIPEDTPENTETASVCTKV
T2 sequence (Q9WTW7 whole entry): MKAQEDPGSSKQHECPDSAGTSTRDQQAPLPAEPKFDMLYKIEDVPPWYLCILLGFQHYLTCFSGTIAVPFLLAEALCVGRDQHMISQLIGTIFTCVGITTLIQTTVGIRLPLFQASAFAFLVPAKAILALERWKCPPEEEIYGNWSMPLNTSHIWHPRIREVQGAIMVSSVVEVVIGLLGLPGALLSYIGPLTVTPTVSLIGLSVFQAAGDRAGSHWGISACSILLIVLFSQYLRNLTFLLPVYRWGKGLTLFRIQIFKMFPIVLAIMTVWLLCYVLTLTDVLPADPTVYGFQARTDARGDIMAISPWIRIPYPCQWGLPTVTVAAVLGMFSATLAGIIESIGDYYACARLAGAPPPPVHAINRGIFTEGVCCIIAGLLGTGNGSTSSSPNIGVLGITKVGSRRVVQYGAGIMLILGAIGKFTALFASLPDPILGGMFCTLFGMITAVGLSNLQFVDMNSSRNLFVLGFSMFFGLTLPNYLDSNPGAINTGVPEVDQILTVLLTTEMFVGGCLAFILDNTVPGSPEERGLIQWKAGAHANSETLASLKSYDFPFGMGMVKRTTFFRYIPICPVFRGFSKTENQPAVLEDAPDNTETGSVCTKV

For `Nc1ncnc2c1ncn2[C@@H]1O[C@H](COP(=O)(O)O)[C@@H](O)[C@H]1O` [AMP], the “inhibition of L-[14C]ascorbic acid uptake (in words)” value (“inhibition … (in words)” below) at human SVCT1 [1] (data not shown) was “none resulted in any significant inhibition”. With `Nc1nc2c(ncn2[C@@H]2O[C@H](CO)[C@@H](O)[C@H]2O)c(=O)[nH]1` [guanosine], the “inhibition … (in words)” value at human SVCT1 [1] (data not shown) was “none resulted in any significant inhibition”. In the case of `O=c1[nH]c(=O)c2[nH]c(=O)[nH]c2[nH]1` [uric acid], the “inhibition … (in words)” value against human SVCT1 [1] (data not shown) is “not significantly inhibited”. For the molecule `O=c1cc[nH]c(=O)[nH]1` [uracil], the “inhibition … (in words)” value on human SVCT1 [1] (data not shown) is listed as “none resulted in any significant inhibition”. Moreover, the “evoked current / substrate selectivity (in words)” value at rat SVCT1 (oocytes expressing SVCT1) is given as “excluded”. On to `CCCCCCCCCCCCCCCC(=O)OC[C@H](O)[C@H]1OC(=O)C(O)=C1O` [L-ascorbic acid-6-palmitate], for which, at human SVCT1 [1] (data not shown), the “inhibition of L-[14C]ascorbic acid uptake” value was 20-30%. Take `O=C1O[C@H]([C@@H](O)CO)C(O)=C1OP(=O)(O)O` [L-ascorbic acid-2-phosphate]: at human SVCT1 [2], the “transport / substrate selectivity (in words)” value is given as “barely transported”.

`O=C(O)C(=O)O` [oxalic acid]: the “inhibition … (in words)” value against human SVCT1 [1] (data not shown) was “not significantly inhibited”. `O=C[C@H](O)[C@H](O)[C@H](O)CO` [D-ribose]: the “inhibition … (in words)” value on human SVCT1 [1] (data not shown) is reported as “not significantly inhibited”. With `OC[C@H]1O[C@@H](n2cnc3c(O)ncnc32)[C@H](O)[C@@H]1O` [inosine], the “inhibition … (in words)” value against human SVCT1 [1] (data not shown) is listed as “none resulted in any significant inhibition”. Same read-out and setting: next, `Nc1nc2c(ncn2[C@@H]2O[C@H](COP(=O)(O)OP(=O)(O)OP(=O)(O)O)[C@@H](O)[C@H]2O)c(=O)[nH]1` [GTP]: “none resulted in any significant inhibition”. Consider `O=C[C@@H](O)[C@@H](O)[C@@H](O)CO` [L-ribose], for which the “inhibition … (in words)” value against human SVCT1 [1] (data not shown) is listed as “not significantly inhibited”. Turning to `[Li+]` [Li^+], on human SVCT1 [1], the “ability to substitute for Na^+ in driving SVCT1-mediated transport” value is recorded as “unable to substitute for Na^+”.

For `O=C(O)CCC(=O)O` [succinic acid], at human SVCT1 [1] (data not shown), the “inhibition … (in words)” value is “not significantly inhibited”. `Nc1ncnc2c1ncn2C1CC(O)C(CO)O1` (stereo not drawn) [2-deoxyadenosine]: on human SVCT1 [1] (data not shown), the “inhibition … (in words)” value is listed as “none resulted in any significant inhibition”. Consider `O=C(CO)[C@@H](O)[C@H](O)[C@H](O)CO` [D-fructose], for which the “inhibition … (in words)” value on human SVCT1 [1] (data not shown) is given as “not significantly inhibited”. On to `CC(O)C(=O)O` (stereo not drawn) [lactic acid], for which the “inhibition … (in words)” value at human SVCT1 [1] (data not shown) is recorded as “not significantly inhibited”. Turning to `Nc1ncnc2c1ncn2[C@@H]1O[C@H](COP(=O)(O)OP(=O)(O)OP(=O)(O)O)[C@@H](O)[C@H]1O` [ATP], the “inhibition … (in words)” value at human SVCT1 [1] (data not shown) was “none resulted in any significant inhibition”. Take `Cc1cn([C@H]2C[C@H](O)[C@@H](COP(=O)(O)OP(=O)(O)OP(=O)(O)O)O2)c(=O)[nH]c1=O` [dTTP]: at human SVCT1 [1] (data not shown), the “inhibition … (in words)” value was “none resulted in any significant inhibition”. Consider `Nc1nc2c(ncn2[C@H]2C[C@H](O)[C@@H](COP(=O)(O)OP(=O)(O)OP(=O)(O)O)O2)c(=O)[nH]1` [dGTP], for which, at human SVCT1 [1] (data not shown), the “inhibition … (in words)” value was “none resulted in any significant inhibition”. With `Nc1ncnc2c1ncn2[C@@H]1O[C@H](COP(=O)(O)OP(=O)(O)O)[C@@H](O)[C@H]1O` [ADP], the “inhibition … (in words)” value against human SVCT1 [1] (data not shown) is listed as “none resulted in any significant inhibition”. For the molecule `O=c1ccn([C@@H]2O[C@H](COP(=O)(O)OP(=O)(O)OP(=O)(O)O)[C@@H](O)[C@H]2O)c(=O)[nH]1` [UTP], at human SVCT1 [1] (data not shown), the “inhibition … (in words)” value is recorded as “none resulted in any significant inhibition”. `Nc1ncnc2c1ncn2[C@@H]1O[C@H](CO)[C@@H](O)[C@H]1O` [adenosine]: at human SVCT1 [1] (data not shown), the “inhibition … (in words)” value is “none resulted in any significant inhibition”. Consider `O=CC[C@@H](O)[C@H](O)[C@H](O)CO` [2-deoxy-D-glucose], for which the “inhibition … (in words)” value against human SVCT1 [1] (data not shown) is reported as “not significantly inhibited”.

Regarding `[Na+]` [Na^+], on human SVCT1 [1] (L-ascorbic acid uptake), the “K0.5 for Na^+” value is 15 to 25 mM. In addition, the “K0.5 for Na^+ (concentration at which current was half-maximal)” value at rat SVCT1 (at 200 μM L-ascorbic acid, −50 mV) worked out at 40 mM. In addition, the “Hill coefficient (nH)” value at rat SVCT1 (evoked currents, −50 mV) is “≈ 2”. For the molecule `Nc1ncnc2nc[nH]c12` [adenine], the “inhibition … (in words)” value at human SVCT1 [1] (data not shown) is on record as “none resulted in any significant inhibition”. For the molecule `Nc1ncnc2c1ncn2[C@H]1C[C@H](O)[C@@H](COP(=O)(O)OP(=O)(O)OP(=O)(O)O)O1` [dATP], the “inhibition … (in words)” value on human SVCT1 [1] (data not shown) is on record as “none resulted in any significant inhibition”. As to `Cc1c[nH]c(=O)[nH]c1=O` [thymine], at human SVCT1 [1] (data not shown), the “inhibition … (in words)” value is given as “none resulted in any significant inhibition”. On to `Nc1ccn([C@H]2C[C@H](O)[C@@H](COP(=O)(O)OP(=O)(O)OP(=O)(O)O)O2)c(=O)n1` [dCTP], for which, at human SVCT1 [1] (data not shown), the “inhibition … (in words)” value is listed as “none resulted in any significant inhibition”. Consider `O=c1ccn([C@@H]2O[C@H](CO)[C@@H](O)[C@H]2O)c(=O)[nH]1` [uridine], for which the “inhibition … (in words)” value against human SVCT1 [1] (data not shown) is recorded as “none resulted in any significant inhibition”.

Consider `OC[C@@H](O)[C@@H](O)[C@H](O)[C@H](O)CO` [D-mannitol], for which, at human SVCT1 [1] (data not shown), the “inhibition … (in words)” value is reported as “not significantly inhibited”.
